What was measured:
Acetylcholinesterase = target: T1, Acetylcholinesterase (Rattus norvegicus, UniProt P37136); assay: Inhibitory concentration against acetylcholinesterase from rat cortex homogenate by ellman method was determined
T1 sequence (P37136 whole entry): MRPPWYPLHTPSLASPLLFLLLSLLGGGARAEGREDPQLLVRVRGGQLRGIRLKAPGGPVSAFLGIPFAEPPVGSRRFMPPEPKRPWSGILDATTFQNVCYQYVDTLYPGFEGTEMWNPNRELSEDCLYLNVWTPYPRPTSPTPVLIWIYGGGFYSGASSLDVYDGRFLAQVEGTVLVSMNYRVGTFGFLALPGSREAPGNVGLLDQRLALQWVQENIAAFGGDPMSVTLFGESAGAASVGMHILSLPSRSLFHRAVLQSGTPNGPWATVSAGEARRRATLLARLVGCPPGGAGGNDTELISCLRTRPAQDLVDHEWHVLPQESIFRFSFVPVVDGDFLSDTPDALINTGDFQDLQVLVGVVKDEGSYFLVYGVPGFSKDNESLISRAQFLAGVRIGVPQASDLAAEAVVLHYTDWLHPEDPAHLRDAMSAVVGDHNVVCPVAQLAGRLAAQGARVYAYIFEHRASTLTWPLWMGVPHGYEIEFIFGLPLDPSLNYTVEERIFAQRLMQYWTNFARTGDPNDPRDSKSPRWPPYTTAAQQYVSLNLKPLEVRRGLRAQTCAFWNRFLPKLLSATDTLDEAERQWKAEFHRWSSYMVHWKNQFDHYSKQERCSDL

Butyrylcholinesterase = Butyrylcholinesterase (Rattus norvegicus, UniProt Q9JKC1); assay: Inhibitory concentration against butyrylcholinesterase from rat serum
[1] = target: Acetylcholinesterase and butyrylcholinesterase (AChE and BChE) (Rattus norvegicus) (UniProt P37136+Q9JKC1); assay: Ratio of inhibitory concentration for AChE and BChE; type: protein assay
Chain of Acetylcholinesterase and butyrylcholinesterase (AChE and BChE) (Rattus norvegicus) (Q9JKC1 1-597, one chain of several): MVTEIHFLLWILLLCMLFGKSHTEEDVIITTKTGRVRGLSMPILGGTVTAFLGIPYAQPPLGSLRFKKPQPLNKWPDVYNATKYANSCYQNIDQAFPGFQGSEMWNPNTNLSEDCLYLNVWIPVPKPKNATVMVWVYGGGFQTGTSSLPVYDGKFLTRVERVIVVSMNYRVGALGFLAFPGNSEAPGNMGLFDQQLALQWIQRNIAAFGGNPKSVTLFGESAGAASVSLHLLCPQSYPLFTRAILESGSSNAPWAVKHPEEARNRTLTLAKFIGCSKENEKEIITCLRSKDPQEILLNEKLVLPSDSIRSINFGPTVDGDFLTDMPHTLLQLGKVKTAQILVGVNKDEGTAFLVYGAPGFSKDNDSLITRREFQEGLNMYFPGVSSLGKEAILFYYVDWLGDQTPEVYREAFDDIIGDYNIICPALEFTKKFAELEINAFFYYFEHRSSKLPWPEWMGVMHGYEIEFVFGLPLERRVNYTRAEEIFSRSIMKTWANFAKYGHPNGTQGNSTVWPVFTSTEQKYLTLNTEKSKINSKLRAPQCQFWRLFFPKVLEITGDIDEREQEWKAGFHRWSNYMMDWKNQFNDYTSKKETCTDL

Chain of Butyrylcholinesterase (Q9JKC1 whole entry): as the sequence (Q9JKC1 1-597, one chain of several) above

SMILES	IC50 (Acetylcholinesterase) [µM]	IC50 (Butyrylcholinesterase) [µM]	Selectivity [1]
CC1=CC2Cc3[nH]c(=O)ccc3[C@@]3(C1)[C@@H]2CCCN3CCN1CCN(CC[N+]2(C(=O)CN)CCC[C@@H]3C4C=C(C)C[C@]32c2ccc(=O)[nH]c2C4)CC1 (stereo partly drawn)	0.407	192	472
CC1=C[C@H]2Cc3[nH]c(=O)ccc3[C@@]3(C1)[C@@H]2CCCN3C(=O)CN1CCCN(CC(=O)N2CCC[C@@H]3[C@H]4C=C(C)C[C@]32c2ccc(=O)[nH]c2C4)CC1	0.114	171	1500
CC1=C[C@H]2Cc3nc(O)ccc3[C@@]3(C1)[C@@H]2CCCN3CCN1CCN(Cc2cccnc2)CC1	26.7	–	–
CC1=C[C@H]2Cc3[nH]c(=O)ccc3[C@@]3(C1)[C@@H]2CCCN3CCN(Cc1ccccc1)c1ccccc1	> 54	–	–
CC1=C[C@H]2Cc3[nH]c(=O)ccc3[C@@]3(C1)[C@@H]2CCCN3CCN1CCCN(CCN2CCC[C@@H]3[C@H]4C=C(C)C[C@]32c2ccc(=O)[nH]c2C4)CC1	0.218	125	573
CC1=C[C@H]2Cc3[nH]c(=O)ccc3[C@@]3(C1)NCCC[C@H]23	–	157	–
CC1=C[C@H]2Cc3[nH]c(=O)ccc3[C@@]3(C1)[C@@H]2CCCN3C(=O)CN(C)Cc1ccccc1	50.7	–	–
CC1=C[C@H]2Cc3nc(O)ccc3[C@@]3(C1)[C@@H]2CCCN3CCN(C)CCc1ccccc1	20.7	–	–
CC1=C[C@H]2Cc3nc(O)ccc3[C@@]3(C1)[C@@H]2CCCN3CCN(C)CCCc1ccccc1	9.53	–	–
CC1=C[C@H]2Cc3nc(O)ccc3[C@@]3(C1)[C@@H]2CCCN3CCN(C)Cc1ccccc1	66.5	–	–
CC1=CC2Cc3[nH]c(=O)ccc3[C@@]3(C1)[C@@H]2CCCN3C(=O)CN1CCN(Cc2ccccc2)CC1	33.3	–	–
CC1=CC2Cc3[nH]c(=O)ccc3[C@@]3(C1)[C@@H]2CCCN3C(=O)CN1CCN(Cc2ccc([N+](=O)[O-])cc2)CC1	5.58	–	–
CC1=C[C@H]2Cc3nc(O)ccc3[C@@]3(C1)[C@@H]2CCCN3CN1CCN(Cc2ccccc2)CC1	31.6	–	–
CC1=C[C@H]2Cc3nc(O)ccc3[C@@]3(C1)[C@@H]2CCCN3C(=O)N1CCN(Cc2cccnc2)CC1	38.1	–	–
CC1=C[C@H]2Cc3[nH]c(=O)ccc3[C@@]3(C1)[C@@H]2CCCN3C(=O)CN1CCN(CC(=O)N2CCC[C@@H]3[C@H]4C=C(C)C[C@]32c2ccc(=O)[nH]c2C4)CC1	1.17	> 184	> 157
CC1=CC2Cc3[nH]c(=O)ccc3[C@@]3(C1)[C@@H]2CCCN3C(=O)CN(C)CCc1ccccc1	23.5	–	–
COc1ccc(CN2CCN(CC(=O)N3CCC[C@@H]4C5C=C(C)C[C@]43c3ccc(=O)[nH]c3C5)CC2)cc1	5.75	–	–
CC1=CC2Cc3[nH]c(=O)ccc3[C@@]3(C1)[C@@H]2CCCN3C(=O)CN(C)CCCc1ccccc1	6.19	–	–
COc1ccc(CN2CCN(CN3CCC[C@@H]4[C@H]5C=C(C)C[C@]43c3ccc(O)nc3C5)CC2)cc1	10.3	–	–
CC1=C[C@H]2Cc3nc(O)ccc3[C@@]3(C1)[C@@H]2CCCN3C(=O)CN(Cc1ccccc1)c1ccccc1	> 52	–	–
